Test results published in patent US20030159953A1, “Carbohydrate medical solution and sulphite stabilisator in a multiple compartment container and use thereof” (priority 2003, published 2003).

Key:
[1] = Determination of acetaldehyde and formaldehyde (HPLC, 2,4-DNPH derivatives); format: physicochemical; conditions: Example 5: 1.5% glucose solution, sodium bisulphite 0, 0.5, 1 mM added before or after heat sterilisation 121° C. 1 hour
Description: Determination of acetaldehyde and formaldehyde: The samples for the determination of acetaldehyde were diluted 20 times to a final volume of 4 ml, prior to analysis. Acetaldehyde was prepared as hydrazone derivatives using 2,4-DNPH as derivative reagent. The standards were prepared in range 1.1-11.4 μM acetaldehyde, and 1.7-16.7 μM formaldehyde. Standards and samples were prepared by adding 2 ml 0.08% (weight/volume) 2,4-DNPH to 4 ml of each sample. The sample were concentrated on a solid phase extraction C18 column (Bond Elut LRC 200 mg/3 ml) and after rinsing with water, eluted with 1.6 ml acetonitrile. The analytical column was a Supelco C18 column (5 μm, 15 cm×4,6 mm). The elution of the substances was performed at constant flow of 1.7 ml/min by using a linear gradient of acetonitrile/water. The percentage acetonitrile/water (volume/volume) was initially 35/65 and at the gradient stop 12 minutes later 80/20. The wavelenght was set at 240 nm and the injected volume was 20 μl. The limit of quantification was for acetaldehyde. 1.1 μM. And for formaldehyde 1.7 μM.

[2] = system: mouse fibroblasts cells L-929; test: In vitro assay for cytotoxicity (inhibition of cell growth, ICG); format: cell-based
Description: Medical solutions used for peritoneal dialysis were mixed with one part cell growth medium and 10% (volume/volume) fetal calf serum was added (Wieslander et al., 1991, Kidney Int. 40:77-79). Basal cytotoxicity of medical solution used for peritoneal dialysis were determined on mouse fibroblasts cells L-929 (CCL-1; ATTC, Rockville, Md., USA) as described earlier (Wieslander et al. 1993, Advances in Peritoneal Dialys, 9:31-35) and expressed as inhibition of cellgrowth (ICG).

Q: With `O=S([O-])O.[Na+]` [sodium bisulphite] as the compound, how does the “level of acetaldehyde in sterilised solution” value [1] read?
A: decreased levels

Q: What about the “level of formaldehyde in sterilised solution” value [1] of the same compound?
A: decreased levels

Q: What about the “inhibition of cell growth (ICG)” value ([2]; Example 3: bisulphite in glucose compartment, 0-0.5 mM in final solution, 4% glucose, sterilised 121° C. 1 hour, mixed post sterilisation) of the same compound?
A: decrease of the ICG value

Q: What about the “inhibition of cell growth (ICG)” value ([2]; Example 4: sulphite in electrolyte compartment, concentrations in final solution as in example 3, 4% glucose, sterilised 121° C. 1 hour) of the same compound?
A: decrease of the ICG value

Q: What about the “inhibition of cell growth (ICG)” value ([2]; Example 5: 1.5% glucose solution, sodium bisulphite 0, 0.5, 1 mM added before or after heat sterilisation 121° C. 1 hour) of the same compound?
A: decrease of the ICG value
